Assay results from EP2935252B1, “NOVEL BIS-CHROMONE DERIVATIVES, METHODS FOR THEIR PREPARATION AND USES THEREOF” (Rijksuniversiteit te Groningen, priority 2012, dated 2014).

What was measured:
LAD2 mast cell line = assay: β-hexosaminidase release assay: inhibition of Compound 48/80-evoked mast cell degranulation; format: cell-based, human; conditions: for IC50: LAD2 cells; for efficacy: concentration response curves, Fig. 3, Compound 48/80 1.0 µM; for potency relative to DSCG: β-hexosaminidase release assays, Fig. 3; for change in inhibitory activity after photoisomerization: non-irradiated vs 365 nm irradiated
Description: LAD2 Cell culture The human mast cell line LAD2 was kindly provided by Dr. A. Kirshenbaum (National Institute of Allergy and Infectious Diseases, Bethesda, MD). LAD2 cells were cultured in suspension at 37 °C, 95% relative humidity and 5% CO2 in StemPro-34 Serum-free medium (Invitrogen) supplemented with 2 mM L-glutamine (Sigma Aldrich), 100 IU/mL penicillin (Sigma Aldrich), 100 µg/mL streptomycin (Sigma Aldrich) and 100 ng/ml rhSCF (Invitrogen). Cells were not allowed to grow beyond a density of 5.0 x 10^5 cells/mL and fresh medium was supplied once a week.
β-Hexosaminidase Assay β-Hexosaminidase release was measured according to a previously published method.^28 In short, 50 µL of supernatant was transferred to a 96-well plate. To this 100 µL of a 2 mg/mL solution of p-nitrophenyl- N-acetyl-D-glucosaminidine in citrate buffer pH 4.5 was added. The plate was incubated at 37 °C for 1 h. The reaction was stopped by adding 100 µL of 0.4 M glycine solution and the absorbance was measured on a plate reader at a wavelength of 405 nm. Subsequently, the percentage released β-hexosaminidase was determined by comparison with the absorption of cell lysate of the same cells using the following formula: (supernatant)/(supernatant + lysate) × 100% = % Reaased β−Hexosaminidase. [formula]
Inhibitory Activity Tests LAD2 cells were suspended in HEPES buffer at a concentration of 50,000 cells/mL. 80 µL of cell suspension was transferred to a microreaction cup to which 10 µL of inhibitor solution was added. This was incubated at 37 °C for 30 min after which 10 µL of a Compound 48/80 solution was added. Next, the cell suspension was incubated for 30 min at 37 °C and the β-hexosaminidase release was assayed.
MAC and PAC seem to have an almost 100 times greater inhibitory potency than DSCG.
Next, the difference in inhibitory activity between the two photoisomers of DAC, MAC and PAC was determined. The inhibitory activity was determined for each compound at two concentrations that were on the steep part of the concentration response curve, because at these concentrations a possible difference in inhibitory activity is best detectable. LAD2 cells were incubated with either non-irradiated solutions of DAC, MAC and PAC or with solutions that were irradiated with 365 nm light prior incubation. After evoking a degranulation with Compound 48/80, β-hexosaminidase release was determined.. […] At a concentration of 10 µM the relative difference in inhibitory activity between the two forms of PAC is 25% (see Figure 4).

[1] = Ratio of trans and cis photoisomers determined by RP-HPLC at the isosbestic point; format: physicochemical
Description: Photoswitching Experiments Irradiation experiments were performed with a Spectroline ENB-280C/FE UV lamp (365 nm) and Thor Labs OSL1-EC Fiber Illuminator (white light).
The photoswitchable behavior of DAC, MAC and PAC was studied using UV-VIS spectroscopy and RP-HPLC. The trans-isomers of DAC, MAC and PAC have a characteristic absorbance maximum between 300 and 400 nm in water. This absorbance maximum decreases when the molecules are photoswitched to their cis-isomers and a new absorbance maximum appears around 430 nm (Fig. 2A-C).^25 Isosbestic points at 405 nm (DAC), 270 nm (MAC) and 270 nm (PAC) clearly illustrate the selective isomerization and reversibility of the photoswitching process. Using RP-HPLC, the ratio of photoisomers was determined for both the non-irradiated and 365 nm-irradiated forms of DAC, MAC and PAC (Table 1). Higher photostationary states were obtained when the photoswitchable inhibitors were irradiated with 365 nm light in DMSO as compared to water (Table 1). Therefore, the compounds were switched at a high concentration in DMSO and diluted in water to obtain a maximum concentration of 1% DMSO (v/v). […]
Table 1 Ratio of trans and cis isomers of the photoswitchable inhibitors under different conditions. Ratios are determined at the isosbestic point (DAC=405 nm, MAC=270 nm, PAC=270 nm) with RP-HPLC (C18, flow 1 mL/min, MeCN and H3PO4pH=3.0).

[2] = Homo sapiens, light or radiation study, degranulation evoked by 1.0 µM Compound 48/80, non-irradiated inhibitors, 30 min pre-incubation, n=3

IC50 (LAD2 mast cell line; [2]) [µM]	cis isomer in the photo stationary state (PSS) ([1]; irradiated form (365 nm)) [%]	trans isomer in the photo stationary state (PSS) ([1]; non-irradiated form) [%]	Compound	inhibitory activity (LAD2 mast cell line; Compound 48/80 1.0 µM)	IC50 (LAD2 mast cell line; degranulation evoked by 1.0 µM Compound 48/80, n=3) [µM]	inhibitory activity (LAD2 mast cell line; lower concentration of Compound 48/80 (0.1 µM), data not shown)	efficacy (LAD2 mast cell line)	potency relative to DSCG (LAD2 mast cell line) [times]	change in inhibitory activity after photoisomerization (LAD2 mast cell line)	inhibition at 10 µM (LAD2 mast cell line; Homo sapiens, LAD2, light or radiation study, concentration of 10 µM, non-irradiated form more active than irradiated form, read-out: relative difference in inhibitory activity between non-irradiated and 365 nm irradiated form) [%]
–	–	–	O=C([O-])c1cc(=O)c2c(OCC(O)COc3cccc4oc(C(=O)[O-])cc(=O)c34)cccc2o1.[Na+].[Na+] [DSCG, DiSodiumCromoGlycate, reference compound]	did not show any inhibitory activity	> 1000	able to inhibit mast cell degranulation	–	–	–	–
10	–	–	O=C([O-])c1cc(=O)c2c(OCc3cccc(/N=N/c4cccc(COc5cccc6oc(C(=O)[O-])cc(=O)c56)c4)c3)cccc2o1.[Na+].[Na+] [MAC, Sodium (E)-5,5'-(((diazene-1,2-diylbis(3,1-phenylene))bis(methylene))bis(oxy))bis(4-oxo-4H-chromene-2-carboxylate)]	significantly greater inhibitory activity than the original drug DSCG	–	–	greater efficacy than PAC	~100	–	–
272	–	–	O=C([O-])c1cc(=O)c2cc(/N=N/c3ccc4oc(C(=O)[O-])cc(=O)c4c3)ccc2o1.[Na+].[Na+] [DAC, Sodium (E)-6,6'-(diazene-1,2-diyl)bis(4-oxo-4H-chromene-2-carboxylate)]	significantly greater inhibitory activity than the original drug DSCG	–	–	greater efficacy than PAC	–	a significant change in inhibitory activity after photoisomerization was not observed	–
28	81	91	O=C([O-])c1cc(=O)c2c(OCc3ccc(/N=N/c4ccc(COc5cccc6oc(C(=O)[O-])cc(=O)c56)cc4)cc3)cccc2o1.[Na+].[Na+] [PAC, Sodium (E)-5,5'-(((diazene-1,2-diylbis(4,1-phenylene))bis(methylene))bis(oxy))bis(4-oxo-4H-chromene-2-carboxylate)]	significantly greater inhibitory activity than the original drug DSCG	–	–	–	~100	A significant difference was observed	25
